Experimental data: patent publication US20230265116A1, “DEGRADATION OF (EGFR) BY CONJUGATION OF EGFR INHIBITORS WITH E3 LIGASE LIGAND AND METHODS OF USE” (BEIGENE, LTD., priority 2020, published 2023)
Like-named read-outs stand apart in the source and are kept apart here.

Assays:
[1] = target: T1, EGFR L858R/T790M/C797S (BaF3-LTC cells) (Homo sapiens, UniProt P00533, C797S/L858R/T790M); experiment: EGFR degradation HTRF assay, BaF3-LTC cells; assay type: cell-based
T1 construct: expressed in transfected cells; host or cells: BaF3
T1 sequence (P00533 25-1210 T790M/C797S/L858R): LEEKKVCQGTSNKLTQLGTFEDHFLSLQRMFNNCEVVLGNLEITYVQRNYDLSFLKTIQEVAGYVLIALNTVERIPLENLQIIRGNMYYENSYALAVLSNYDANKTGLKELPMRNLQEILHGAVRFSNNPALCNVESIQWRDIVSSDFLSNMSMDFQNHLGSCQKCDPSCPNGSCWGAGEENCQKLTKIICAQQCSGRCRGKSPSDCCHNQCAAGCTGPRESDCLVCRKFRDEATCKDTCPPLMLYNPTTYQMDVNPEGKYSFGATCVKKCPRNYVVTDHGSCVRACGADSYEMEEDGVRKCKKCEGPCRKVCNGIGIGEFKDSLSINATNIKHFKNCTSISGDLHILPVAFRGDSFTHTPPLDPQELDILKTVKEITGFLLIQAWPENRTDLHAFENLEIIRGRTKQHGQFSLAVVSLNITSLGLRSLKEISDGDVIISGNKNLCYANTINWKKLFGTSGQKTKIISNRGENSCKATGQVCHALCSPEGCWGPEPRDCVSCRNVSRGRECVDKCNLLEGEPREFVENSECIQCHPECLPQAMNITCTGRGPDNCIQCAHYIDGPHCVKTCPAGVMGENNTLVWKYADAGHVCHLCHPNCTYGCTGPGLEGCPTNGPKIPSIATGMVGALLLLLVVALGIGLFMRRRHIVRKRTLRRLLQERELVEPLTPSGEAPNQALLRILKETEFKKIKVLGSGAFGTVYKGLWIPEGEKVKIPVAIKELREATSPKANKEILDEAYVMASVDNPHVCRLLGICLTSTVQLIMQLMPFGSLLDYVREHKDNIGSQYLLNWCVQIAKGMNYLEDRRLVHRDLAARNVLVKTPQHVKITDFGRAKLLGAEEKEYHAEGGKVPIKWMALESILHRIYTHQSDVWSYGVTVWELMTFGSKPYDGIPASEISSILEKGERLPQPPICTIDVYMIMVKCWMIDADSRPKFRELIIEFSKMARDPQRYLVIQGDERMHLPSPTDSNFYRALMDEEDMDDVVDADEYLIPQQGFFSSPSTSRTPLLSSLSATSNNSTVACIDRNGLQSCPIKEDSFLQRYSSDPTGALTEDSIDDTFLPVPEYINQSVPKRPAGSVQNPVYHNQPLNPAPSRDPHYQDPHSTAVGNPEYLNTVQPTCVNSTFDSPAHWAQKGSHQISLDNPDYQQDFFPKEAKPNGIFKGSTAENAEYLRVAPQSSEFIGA
Summary of the method: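 Cells treated 16 h at 37 °C, 5% CO2 in medium with 0.2% DMSO; top final concentration 10 uM, 5-fold dilution, 8 doses. Lysates read by HTRF (665/620 nm); degradation % versus DMSO high control, DC50 from four-parameter fit, Dmax as maximal degradation.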

[2] = system: EGFR Del19/T790M/C797S (H1975-clone #28); experiment: EGFR degradation HTRF assay, H1975-clone #28 DTC cells; assay type: cell-based
Summary of the method: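 Compounds (top 10 uM, 5-fold, 8 points, 0.2% DMSO) incubated 16 h at 37 °C on homozygous clones: #23 Del19/C797S, #28 Del19/T790M/C797S, exogenous EGFR only in H1975. HTRF on lysates quantified remaining EGFR relative to DMSO; four-parameter fit gave DC50 and Dmax.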

[3] = BaF3-LTC cells; EGFR degradation, IC50 (DC50) from curve fit; read-out: DC50(nM) BaF3-LTC
[4] = BaF3-LTC cells; maximum percentage of inhibition (degradation); read-out: Dmax (%) BaF3-LTC
[5] = H1975 # 28 DTC cells; EGFR degradation, IC50 (DC50) from curve fit; read-out: DC50(nM) H1975 # 28 DTC
[6] = H1975 # 28 DTC cells; maximum percentage of inhibition (degradation)

CCOc1cc(N2CCC(N3CCN(CCc4cc(F)c([C@H]5CCC(=O)NC5=O)c(F)c4)CC3)CC2)c(CC)cc1Nc1ncc(Br)c(Nc2ccc3c(=O)n(CC)ncc3c2P(C)(C)=O)n1 [Example 679, (R)-3-(4-(2-(4-(1-(4-((5-bromo-4-((5-(dimethylphosphoryl)-2-ethyl-1-oxo-1,2-dihydrophthalazin-6-yl)amino)pyrimidin-2-yl)amino)-5-ethoxy-2-ethylphenyl)piperidin-4-yl)piperazin-1-yl)ethyl)-2,6-difluorophenyl)piperidine-2,6-dione]
DC50 [1, 3]: 22.6 nM | Dmax [1, 4]: 93.3% | DC50 [2, 5]: 1.75 nM | Dmax (%) H1975 # 28 DTC [2, 6]: 83.46%

CCc1ccc2c(P(C)(C)=O)c(Nc3nc(Nc4cc(CC)c(N5CCC(N6CCN(C(=O)[C@@H]7CCN(c8cc(F)c(C9CCC(=O)NC9=O)c(F)c8)C7)CC6)CC5)cc4OC)ncc3Br)ccc2n1 (stereo partly drawn) [Example 515, 3-(4-((R)-3-(4-(1-(4-((5-bromo-4-((5-(dimethylphosphoryl)-2-ethylquinolin-6-yl)amino)pyrimidin-2-yl)amino)-2-ethyl-5-methoxyphenyl)piperidin-4-yl)piperazine-1-carbonyl)pyrrolidin-1-yl)-2,6-difluorophenyl)piperidine-2,6-dione]
DC50 [1, 3]: 19.7 nM | Dmax [1, 4]: 90.4% | DC50 [2, 5]: 3.22 nM | Dmax (%) H1975 # 28 DTC [2, 6]: 66.35%

CCc1cc(Nc2ncc(Br)c(Nc3ccc4c(c3P(C)(C)=O)OCCO4)n2)c(OC)cc1N1CCC(N2CCN(C(=O)[C@@H]3CCN(c4cc(F)c([C@H]5CCC(=O)NC5=O)c(F)c4)C3)CC2)CC1 [Example 686, (R)-3-(4-((R)-3-(4-(1-(4-((5-bromo-4-((5-(dimethylphosphoryl)-2,3-dihydrobenzo[b][1,4]dioxin-6-yl)amino)pyrimidin-2-yl)amino)-2-ethyl-5-methoxyphenyl)piperidin-4-yl)piperazine-1-carbonyl)pyrrolidin-1-yl)-2,6-difluorophenyl)piperidine-2,6-dione]
DC50 [1, 3]: 4.89 nM | Dmax [1, 4]: 96.6% | DC50 [2, 5]: 1.76 nM | Dmax (%) H1975 # 28 DTC [2, 6]: 88.73%

CCOc1cc(N2CCC(N3CCN(C[C@@H]4CCN(c5cc(F)cc6c5oc(=O)n6C5CCC(=O)NC5=O)C4)CC3)CC2)c(CC)cc1Nc1ncc(Br)c(Nc2ccc3nc(CC)ccc3c2P(C)(C)=O)n1 (stereo partly drawn) [Example 476, 3-(7-((S)-3-((4-(1-(4-((5-bromo-4-((5-(dimethylphosphoryl)-2-ethylquinolin-6-yl)amino)pyrimidin-2-yl)amino)-5-ethoxy-2-ethylphenyl)piperidin-4-yl)piperazin-1-yl)methyl)pyrrolidin-1-yl)-5-fluoro-2-oxobenzo[d]oxazol-3(2H)-yl)piperidine-2,6-dione]
DC50 [1, 3]: 26.5 nM | Dmax [1, 4]: 88% | DC50 [2, 5]: 7.95 nM | Dmax (%) H1975 # 28 DTC [2, 6]: 74.62%

CCOc1cc(N2CCC(N3CCN(CCc4cc(Cl)cc5c4oc(=O)n5C4CCC(=O)NC4=O)CC3)CC2)c(CC)cc1Nc1ncc(Br)c(Nc2ccc3c(=O)n(CC)ncc3c2P(C)(C)=O)n1 (stereo not drawn) [Example 599, 3-(7-(2-(4-(1-(4-((5-bromo-4-((5-(dimethylphosphoryl)-2-ethyl-1-oxo-1,2-dihydrophthalazin-6-yl)amino)pyrimidin-2-yl)amino)-5-ethoxy-2-ethylphenyl)piperidin-4-yl)piperazin-1-yl)ethyl)-5-chloro-2-oxobenzo[d]oxazol-3(2H)-yl)piperidine-2,6-dione]
DC50 [1, 3]: 25 nM | Dmax [1, 4]: 73.9% | DC50 [2, 5]: 1.91 nM | Dmax (%) H1975 # 28 DTC [2, 6]: 80.53%

CCOc1cc(N2CCC(N3CCN(CCC4CCN(c5ccc6c(oc(=O)n6C6CCC(=O)NC6=O)c5F)CC4)CC3)CC2)c(CC)cc1Nc1ncc(Br)c(Nc2ccc3nc(CC)ncc3c2P(C)(C)=O)n1 (stereo not drawn) [Example 612, 3-(6-(4-(2-(4-(1-(4-((5-bromo-4-((5-(dimethylphosphoryl)-2-ethylquinazolin-6-yl)amino)pyrimidin-2-yl)amino)-5-ethoxy-2-ethylphenyl)piperidin-4-yl)piperazin-1-yl)ethyl)piperidin-1-yl)-7-fluoro-2-oxobenzo[d]oxazol-3(2H)-yl)piperidine-2,6-dione]
DC50 ([1]; read-out: DC50(nM) BaF3-LTC; BaF3-LTC cells; EGFR degradation, IC50 (DC50) from curve fit): 7.68 nM | Dmax ([1]; read-out: Dmax (%) BaF3-LTC, BaF3-LTC cells; maximum percentage of inhibition (degradation)): 93.2% | Dmax (%) H1975 # 28 DTC [2, 6]: 72.14% | DC50 ([2]; read-out: DC50(nM) H1975 # 28 DTC; H1975 # 28 DTC cells; EGFR degradation, IC50 (DC50) from curve fit): 0.656 nM

CCOc1cc(N2CCC(N3CCN(CCc4c(F)ccc5c4oc(=O)n5C4CCC(=O)NC4=O)CC3)CC2)c(CC)cc1Nc1ncc(Br)c(Nc2cc(F)c3nc(CC)ccc3c2P(C)(C)=O)n1 (stereo not drawn) [Example 614, 3-(7-(2-(4-(1-(4-((5-bromo-4-((5-(dimethylphosphoryl)-2-ethyl-8-fluoroquinolin-6-yl)amino)pyrimidin-2-yl)amino)-5-ethoxy-2-ethylphenyl)piperidin-4-yl)piperazin-1-yl)ethyl)-6-fluoro-2-oxobenzo[d]oxazol-3(2H)-yl)piperidine-2,6-dione]
DC50 [1, 3]: 23.8 nM | Dmax (%) BaF3-LTC ([1]; BaF3-LTC cells; maximum percentage of inhibition (degradation)): 80.74% | DC50 [2, 5]: 2.61 nM | Dmax (%) H1975 # 28 DTC [2, 6]: 74%

CCOc1cc(N2CCC(N3CCN(CC4CCN(c5cc(F)cc6c5oc(=O)n6C5CCC(=O)NC5=O)CC4)CC3)CC2)c(CC)cc1Nc1ncc(Br)c(Nc2ccc3nc(CC)ccc3c2P(C)(C)=O)n1 (stereo not drawn) [Example 621, 3-(7-(4-((4-(1-(4-((5-bromo-4-((5-(dimethylphosphoryl)-2-ethylquinolin-6-yl)amino)pyrimidin-2-yl)amino)-5-ethoxy-2-ethylphenyl)piperidin-4-yl)piperazin-1-yl)methyl)piperidin-1-yl)-5-fluoro-2-oxobenzo[d]oxazol-3(2H)-yl)piperidine-2,6-dione]
DC50 [1, 3]: 15 nM | Dmax [1, 4]: 93.9% | DC50 [2, 5]: 1.61 nM | Dmax (%) H1975 # 28 DTC [2, 6]: 77.44%

CCOc1cc(N2CCC(N3CCN(CCc4cccc5c4oc(=O)n5C4CCC(=O)NC4=O)CC3)CC2)c(CC)cc1Nc1ncc(Br)c(Nc2ccc3c(=O)n(CC)ncc3c2P(C)(C)=O)n1 (stereo not drawn) [Example 644, 3-(7-(2-(4-(1-(4-((5-bromo-4-((5-(dimethylphosphoryl)-2-ethyl-1-oxo-1,2-dihydrophthalazin-6-yl)amino)pyrimidin-2-yl)amino)-5-ethoxy-2-ethylphenyl)piperidin-4-yl)piperazin-1-yl)ethyl)-2-oxobenzo[d]oxazol-3(2H)-yl)piperidine-2,6-dione]
DC50 [1, 3]: 5.12 nM | Dmax [1, 4]: 92.6% | DC50 [2, 5]: 0.829 nM | Dmax (%) H1975 # 28 DTC [2, 6]: 86.29%

CCOc1cc(N2CCC(N3CCN(CCCc4cc(F)cc5c4oc(=O)n5C4CCC(=O)NC4=O)CC3)CC2)c(CC)cc1Nc1ncc(Br)c(Nc2cc(F)c3nc(CC)ccc3c2P(C)(C)=O)n1 (stereo not drawn) [Example 620, 3-(7-(3-(4-(1-(4-((5-bromo-4-((5-(dimethylphosphoryl)-2-ethyl-8-fluoroquinolin-6-yl)amino)pyrimidin-2-yl)amino)-5-ethoxy-2-ethylphenyl)piperidin-4-yl)piperazin-1-yl)propyl)-5-fluoro-2-oxobenzo[d]oxazol-3(2H)-yl)piperidine-2,6-dione]
DC50 [1, 3]: 8.28 nM | Dmax [1, 4]: 93.8% | DC50 [2, 5]: 2.04 nM | Dmax (%) H1975 # 28 DTC [2, 6]: 78.78%

CCc1ccc2c(P(C)(C)=O)c(Nc3nc(Nc4cc(C)c(N5CCC(N6CCN(C(=O)[C@@H]7CCN(c8cc(F)c([C@H]9CCC(=O)NC9=O)c(F)c8)C7)CC6)CC5)cc4OC)ncc3Br)ccc2n1 [Example 539, (R)-3-(4-((R)-3-(4-(1-(4-((5-bromo-4-((5-(dimethylphosphoryl)-2-ethylquinolin-6-yl)amino)pyrimidin-2-yl)amino)-5-methoxy-2-methylphenyl)piperidin-4-yl)piperazine-1-carbonyl)pyrrolidin-1-yl)-2,6-difluorophenyl)piperidine-2,6-dione]
DC50 [1, 3]: 6.44 nM | Dmax [1, 4]: 94.1% | DC50 [2, 5]: 1.09 nM | Dmax (%) H1975 # 28 DTC [2, 6]: 84.42%

CCOc1cc(N2CCC(N3CCN(CCc4cc(OC)cc5c4oc(=O)n5C4CCC(=O)NC4=O)CC3)CC2)c(CC)cc1Nc1ncc(Br)c(Nc2ccc3nc(CC)ccc3c2P(C)(C)=O)n1 (stereo not drawn) [Example 618, 3-(7-(2-(4-(1-(4-((5-bromo-4-((5-(dimethylphosphoryl)-2-ethylquinolin-6-yl)amino)pyrimidin-2-yl)amino)-5-ethoxy-2-ethylphenyl)piperidin-4-yl)piperazin-1-yl)ethyl)-5-methoxy-2-oxobenzo[d]oxazol-3(2H)-yl)piperidine-2,6-dione]
DC50 [1, 3]: 53.2 nM | Dmax [1, 4]: 74.2% | DC50 [2, 5]: 2.14 nM | Dmax (%) H1975 # 28 DTC [2, 6]: 74.88%

CCOc1cc(N2CCC(N3CCN(CCc4cc(F)c([C@H]5CCC(=O)NC5=O)c(F)c4)CC3)CC2)c(CC)cc1Nc1ncc(C)c(Nc2cc(F)c3nc(CC)ccc3c2P(C)(C)=O)n1 [Example 733, (R)-3-(4-(2-(4-(1-(4-((4-((5-(dimethylphosphoryl)-2-ethyl-8-fluoroquinolin-6-yl)amino)-5-methylpyrimidin-2-yl)amino)-5-ethoxy-2-ethylphenyl)piperidin-4-yl)piperazin-1-yl)ethyl)-2,6-difluorophenyl)piperidine-2,6-dione]
DC50 [1, 3]: 89.9 nM | DC50 [2, 5]: 7.25 nM | Dmax (%) H1975 # 28 DTC [2, 6]: 84.52%
